Tested on: insulin secretion
Assay: In vivo effect on insulin secretion (ivGTT) in male Wistar rats
Parameters: species or system Wistar rat
Description: Male Wistar rats with femoral artery and femoral vein canulas (Envigo, Indianapolis, IN) (280-320 grams) are single-housed in polycarbonate cages with filter tops. Rats maintained on a 12:12 h light-dark cycle (lights on at 6:00 A.M.) at 21° C. and receive food and deionized water ad libitum. Rats are randomized by body weight and dosed 1.5 mL/kg subcutaneously (s.c.) at doses of 0.3, 1.0, 3, 10, 30, and 100 nmol/kg 16 hours prior to glucose administration then fasted. Animals are weighed and anesthetized with sodium pentobarbital dosed intraperitoneally (i.p.) (65 mg/kg, 30 mg/mL). At time 0, a blood sample is collected into EDTA tubes after which glucose is administered intravenously (i.v.) ([…], 5 mL/kg). Blood samples are collected for glucose and insulin levels at 2, 4, 6, 10, 20 and 30 min post-intravenous administration of glucose. Plasma glucose levels are determined using a clinical chemistry analyzer. Plasma insulin is determined using an electrochemiluminescence assay (Meso Scale, Gaithersburg, MD). […] Results are presented (SEM)(N).

For `CC[C@H](C)[C@H](NC(=O)[C@H](CCCCN)NC(=O)[C@H](CC(=O)O)NC(=O)[C@H](CC(C)C)NC(=O)[C@](C)(CC(C)C)NC(=O)[C@@H](NC(=O)[C@H](CO)NC(=O)[C@H](Cc1ccc(O)cc1)NC(=O)[C@H](CC(=O)O)NC(=O)[C@H](CO)NC(=O)[C@@H](NC(=O)[C@H](Cc1ccccc1)NC(=O)[C@@H](NC(=O)CNC(=O)[C@H](CCC(=O)O)NC(=O)C(C)(C)NC(=O)[C@@H](N)Cc1ccc(O)cc1)[C@@H](C)O)[C@@H](C)CC)[C@@H](C)CC)C(=O)N[C@@H](Cc1c[nH]cn1)C(=O)N[C@@H](CCC(N)=O)C(=O)NC(C)(C)C(=O)N[C@@H](CC(=O)O)C(=O)N[C@@H](Cc1ccccc1)C(=O)N[C@H](C(=O)N[C@@H](CCC(=O)O)C(=O)N[C@@H](Cc1ccc(O)cc1)C(=O)N[C@@H](CCCCNC(=O)COCCOCCNC(=O)COCCOCCNC(=O)CC[C@H](NC(=O)CCCCCCCCCCCCCCCCCCC(=O)O)C(=O)O)C(=O)N[C@@H](CC(C)C)C(=O)N[C@@H](CCC(=O)O)C(=O)NCC(=O)NCC(=O)N1CCC[C@H]1C(=O)N[C@@H](CO)C(=O)N[C@@H](CO)C(=O)NCC(=O)N[C@@H](C)C(=O)N1CCC[C@H]1C(=O)N1CCC[C@H]1C(=O)N1CCC[C@H]1C(=O)N[C@@H](CO)C(N)=O)C(C)C` [Example 5], the “insulin secretion during intravenous glucose tolerance test” value (0.3 nmol/kg s.c. 16 hours prior to glucose) was 36.2, the “insulin secretion during intravenous glucose tolerance test” value (1.0 nmol/kg s.c. 16 hours prior to glucose) was 45.3 and the “insulin secretion during intravenous glucose tolerance test” value (3.0 nmol/kg s.c. 16 hours prior to glucose) was 80.6. The “insulin secretion during intravenous glucose tolerance test” value (10 nmol/kg s.c. 16 hours prior to glucose) was 122.0, the “insulin secretion during intravenous glucose tolerance test” value (30 nmol/kg s.c. 16 hours prior to glucose) was 144 and the “insulin secretion during intravenous glucose tolerance test” value (100 nmol/kg s.c. 16 hours prior to glucose) was 212.7. For the same compound, the “Insulin secretion (ivGTT) ED50” value (s.c., n = 1) was 18.4 (n = 1) nmol/kg.
